Where two headings read alike, the source gives them in different places.
Molecular target: T1, DGAT1 (Homo sapiens, UniProt O75907)
T1 sequence (O75907 1-488): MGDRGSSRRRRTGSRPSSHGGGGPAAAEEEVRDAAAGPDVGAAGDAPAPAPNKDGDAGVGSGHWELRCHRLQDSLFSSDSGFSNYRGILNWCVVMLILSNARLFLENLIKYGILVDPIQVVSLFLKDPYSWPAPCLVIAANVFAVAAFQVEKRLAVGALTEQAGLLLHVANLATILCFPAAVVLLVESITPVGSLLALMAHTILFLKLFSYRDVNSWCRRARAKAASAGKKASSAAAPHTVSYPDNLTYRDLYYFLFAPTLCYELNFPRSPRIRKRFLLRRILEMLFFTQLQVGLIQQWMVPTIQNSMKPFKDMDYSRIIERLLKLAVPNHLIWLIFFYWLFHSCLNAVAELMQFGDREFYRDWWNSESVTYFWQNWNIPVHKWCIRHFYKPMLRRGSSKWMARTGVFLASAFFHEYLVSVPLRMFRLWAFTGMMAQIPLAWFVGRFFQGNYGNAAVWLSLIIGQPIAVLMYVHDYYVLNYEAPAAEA
Assay: Human DGAT1 IC50 enzyme assay (Flashplate, 14C-labeled acyl-CoA)
Type: biochemical
Parameters: made in house
Protocol: The ability of compounds to inhibit DGAT enzyme activity is determined by calculating IC50 values of test compounds. Ki values of DGAT1 are calculated as follows: Cheng-Prusoff equation: Ki=IC50/(1+[S]/Km)
(1) Human DGAT1 IC50 (nM) Experiment
Human DGAT1 activity was determined as follows:
Expressing human DGAT1 enzyme, used diacylglycerol and 14C-labeled acyl-CoA as the substrate, choose PE Company Flashplate testing board to build DGAT1 enzyme reaction system. 14C-labeled acyl-CoA binds to diacylglycerol by covalent bonding after enzymology reaction, and generates the product of 14C-labeled triglyceride. 14C-labeled acyl-CoA substrate is dissolved in reaction solution and 14C-labeled triglyceride product combine with phospholipids of Flashplate plate bottom layer, thus effectively separate labeled substrates and products. The radioactive of 14C-labeled triglyceride which is combined with phospholipid layer is counted, and the potencies of DGAT-1 inhibition for the compounds are determined by calculating the IC50 values.

[1] = average of first and second, read-out: hDGAT1 IC50(nM) Average
[2] = first determination, read-out: hDGAT1 IC50(nM) First
[3] = second determination, read-out: hDGAT1 IC50(nM) Second

Row | Compound | IC50 [1] [nM] | IC50 [2] [nM] | IC50 [3] [nM]
1 | Cc1cc(N2CCOc3ncnc(N)c3C2=O)cc(C)c1-c1cn(CC(F)F)nc1C [Compound 43, 4-amino-6-(4-(1-(2,2-difluoroethyl)-3-methyl-1H-pyrazol-4-yl)-3,5-dimethylphenyl)-7,8-dihydropyrimido[5,4-f][1,4]oxazepin-5(6H)-one] | 17.6 | 18.5 | 16.7
2 | Cc1cc(N2CCOc3ncnc(N)c3C2=O)cc(C)c1-c1cn(CC2(C)COC2)nc1C [Compound 47, 4-amino-6-(3,5-dimethyl-4-(3-methyl-1-((3-methyloxetan-3-yl)methyl)-1H-pyrazol-4-yl)phenyl)-7,8-dihydropyrimido[5,4-f][1,4]oxazepin-5(6H)-one] | 87 | 65.4 | 109
3 | Cc1cc(N2CCOc3ncnc(N)c3C2=O)ccc1-c1cnn(C(C(=O)O)C(C)C)c1 (stereo not drawn) [Compound 59, 2-(4-(4-(4-amino-5-oxo-7,8-dihydropyrimido [5,4-f][1,4]oxazepin-6(5H)-yl)-2-methylphenyl)-1H-pyrazol-1-yl)-3-methylbutanoic acid] | 80.3 | 54.9 | 106
4 | Nc1ncnc2c1C(=O)N(c1ccc(N3CCN(CC(F)(F)F)C3=O)c(Cl)c1)CCO2 [Compound 8, 4-amino-6-(3-chloro-4-(2-oxo-3-(2,2,2-trifluoroethyl)imidazolidin-1-yl)phenyl)-7,8-dihydropyrimido[5,4-f][1,4]oxazepin-5(6H)one] | 38.9 | 41.9 | 35.9
5 | Nc1ncnc2c1C(=O)N(c1ccc(N3CCN(CC(=O)O)C3=O)c(C(F)(F)F)c1)CCO2 [Compound 25, 2-(3-(4-(4-amino-5-oxo-7,8-dihydropyrimido [5,4-f][1,4]oxazepin-6(5H)-yl)-2-(trifluoromethyl)phenyl)-2-oxoimidazolidin-1-yl)acetic acid] | 58.9 | 57.2 | 60.7
6 | Cc1cc(N2CCOc3ncnc(N)c3C2=O)ccc1-c1cnn(CC(=O)O)c1 [Compound 57, 2-(4-(4-(4-amino-5-oxo-7,8-dihydropyrimido [5,4-f][1,4]oxazepin-6(5H)-yl)-2-methylphenyl)-1H-pyrazol-1-yl)acetic acid] | 91.9 | 81.3 | 102
7 | CC(C)(C)Cn1cc(-c2ccc(N3CCOc4ncnc(N)c4C3=O)cc2Cl)cn1 [Compound 88] | 25.7 | 27 | 24.4
8 | CC(C)(Cn1cc(-c2ccc(N3CCOc4ncnc(N)c4C3=O)cc2Cl)cn1)C(=O)O [Compound 71, 3-(4-(4-(4-amino-5-oxo-7,8-dihydropyrimido [5,4-f][1,4]oxazepin-6(5H)-yl)-2-chlorophenyl)-1H-pyrazol-1-yl)-2,2-dimethylpropanoic acid] | 30.6 | 35.9 | 25.3
9 | CCc1cc(N2CCOc3ncnc(N)c3C2=O)cc(C)c1N1CCN(CC(=O)O)C1=O [Compound 4, 2-(3-(4-(4-amino-5-oxo-7,8-dihydropyrimido[5,4-f][1,4]oxazepin-6(5H)-yl)-2-ethyl-6-methylphenyl)-2-oxoimidazolidin-1-yl)acetic acid] | 39.5 | 46.2 | 32.9
10 | Cc1cc(N2CCOc3ncnc(N)c3C2=O)cc(F)c1N1CCN(CC(=O)O)C1=O [Compound 26, 2-(3-(4-(4-amino-5-oxo-7,8-dihydropyrimido [5,4-f][1,4]oxazepin-6(5H)-yl)-2-fluoro-6-methylphenyl)-2-oxoimidazolidin-1-yl) acetic acid] | 50.6 | 41.3 | 60
11 | CCc1cc(N2CCOc3ncnc(N)c3C2=O)ccc1N1CCN(CC(=O)O)C1=O [Compound 5, 2-(3-(4-(4-amino-5-oxo-7,8-dihydropyrimido[5,4-f][1,4]oxazepin-6(5H)-yl)-2-ethylphenyl)-2-oxoimidazolidin-1-yl)acetic acid] | 60.3 | 51.6 | 69
12 | Nc1ncnc2c1C(=O)N(c1ccc(-c3cn(CC(=O)O)nc3C(F)(F)F)cc1)CCO2 [Compound 39, 2-(4-(4-(4-amino-5-oxo-7,8-dihydropyrimido[5,4-f][1,4]oxazepin-6(5H)-yl)phenyl)-3-(trifluoromethyl)-1H-pyrazol-1-yl)acetic acid] | 98.4 | 72.9 | 124
13 | CCn1cc(-c2ccc(N3CCOc4ncnc(N)c4C3=O)cc2Cl)cn1 [Compound 79, 4-amino-6-(3-chloro-4-(1-ethyl-1H-pyrazol-4-yl)phenyl)-7,8-dihydropyrimido [5,4-f][1,4]oxazepin-5(6H)-one] | 52.1 | 46.4 | 57.8
14 | Nc1ncnc2c1C(=O)N(c1ccc(N3CCN(CC(=O)O)C3=O)c(OC(F)(F)F)c1)CCO2 [Compound 7, 2-(3-(4-(4-amino-5-oxo-7,8-dihydropyrimido[5,4-f][1,4]oxazepin-6(5H)-yl)-2-(trifluoromethoxy)phenyl)-2-oxoimidazolidin-1-yl)acetic acid] | 36.9 | 43.5 | 30.4
15 | Cc1cc(N2CCOc3ncnc(N)c3C2=O)cc(C)c1-c1cn(CC(C)(C)F)nc1C [Compound 97, 4-amino-6-(4-(1-(2-fluoro-2-methylpropyl)-3-methyl-1H-pyrazol-4-yl)-3,5-dimethylphenyl)-7,8-dihydropyrimido[5,4-f][1,4]oxazepin-5(6H)-one] | 26.9 | 30.3 | 23.4

Second part, the compound after the results:

Row | IC50 [1] [nM] | IC50 [2] [nM] | IC50 [3] [nM] | Compound
16 | 101 | 136 | 66.5 | CCc1cc(N2CCOc3ncnc(N)c3C2=O)cc(CC)c1N1CCN(CC(=O)O)C1=O [Compound 19]
17 | 20.4 | 27.6 | 13.2 | Cc1cc(N2CCOc3ncnc(N)c3C2=O)cc(C)c1-c1cnn(CCC(=O)O)c1 [Compound 70, 3-(4-(4-(4-amino-5-oxo-7,8-dihydropyrimido [5,4-f][1,4]oxazepin-6(5H)-yl)-2,6-dimethylphenyl)-1H-pyrazol-1-yl)propanoic acid]
18 | 23.5 | 23.6 | 23.4 | CC(C)(F)CN1CCN(c2ccc(N3CCOc4ncnc(N)c4C3=O)cc2Cl)C1=O [Compound 31, 4-amino-6-(3-chloro-4-(3-(2-fluoro-2-methylpropyl)-2-oxoimidazolidin-1-yl)phenyl)-7,8-dihydropyrimido[5,4-f][1,4]oxazepin-5(6H)-one]
19 | 53.2 | 56.1 | 50.3 | Cc1cc(N2CCOc3ncnc(N)c3C2=O)cc(C)c1-c1cnn(CC(=O)O)c1 [Compound 67, 2-(4-(4-(4-amino-5-oxo-7,8-dihydropyrimido [5,4-f][1,4]oxazepin-6(5H)-yl)-2,6-dimethylphenyl)-1H-pyrazol-1-yl)acetic acid]
20 | 42.6 | 47.1 | 38.2 | Cc1cc(N2CCOc3ncnc(N)c3C2=O)cc(C)c1-c1cnn(C(C)(C)C(=O)O)c1 [Compound 66, 2-(4-(4-(4-amino-5-oxo-7,8-dihydropyrimido [5,4-f][1,4]oxazepin-6(5H)-yl)-2,6-dimethylphenyl)-1H-pyrazol-1-yl)-2-methylpropanoic acid]
21 | 42.5 | 32.2 | 52.9 | CC(C)(F)Cn1ccc(-c2ccc(N3CCOc4ncnc(N)c4C3=O)cc2Cl)n1 [Compound 95, 4-amino-6-(3-chloro-4-(1-(2-fluoro-2-methylpropyl)-1H-pyrazol-3-yl)phenyl)-7,8-dihydropyrimido[5,4-f][1,4]oxazepin-5(6H)-one]
22 | 20 | 12.5 | 27.5 | CC(C)(F)Cn1cc(-c2ccc(N3CCOc4ncnc(N)c4C3=O)cc2Cl)cn1 [Compound 91, 4-amino-6-(3-chloro-4-(1-(2-fluoro-2-methylpropyl)-1H-pyrazol-4-yl)phenyl)-7,8-dihydropyrimido[5,4-f][1,4]oxazepin-5(6H)-one]
23 | 55.8 | 78 | 33.6 | CC(C(=O)O)n1cc(-c2ccc(N3CCOc4ncnc(N)c4C3=O)cc2Cl)cn1 (stereo not drawn) [Compound 34, 2-(4-(4-(4-amino-5-oxo-7,8-dihydropyrimido[5,4-f][1,4]oxazepin-6(5H)-yl)-2-chlorophenyl)-1H-pyrazol-1-yl) propanoic acid]
24 | 65.2 | 60.9 | 69.5 | Cc1cc(N2CCOc3ncnc(N)c3C2=O)ccc1N1CCN(CC(=O)O)C1=O [Compound 3, 2-(3-(4-(4-amino-5-oxo-7,8-dihydropyrimido[5,4-f][1,4]oxazepin-6(5H)-yl)-2-methylphenyl)-2-oxoimidazolidin-1-yl)acetate acid]

Reference: patent US9809604B2, “DGAT1 inhibitor and preparation method and use thereof” (Qingdao Huanghai Pharmaceutical Co., Ltd., priority 2013, dated 2017)
